Values after ≈ are worked out from the molar mass of the structure shown.

Holding throughout (type): cell-based
The test system of assay [1] is gram positive and gram negative bacteria.
In assay [2] the test system is Trichiomonas vaginalis. The assay is described as follows: microbe, parasite or virus in culture. The settings on record: read-out: MICs.
The test system of assay [3] is Legionella pneumophila and L. Longbeachea. The assay is described as follows: microbe, parasite or virus in culture. The note with it: read-out: MICs.
The subject of assay [4] is gram negative bacteria. In words: microbe, parasite or virus in culture. The note with it: read-out: GMM.
In assay [5] the test system is methicillin-susceptible staphylococci. The assay is described as follows: microbe, parasite or virus in culture.
In assay [6] the test system is Borrelia burgdorferi. In words: microbe, parasite or virus in culture. The note with it: Borreliella burgdorferi, read-out: MICs.
For assay [7], the system named is Mycoplasma. The assay is described as follows: microbe, parasite or virus in culture. The note with it: read-out: MICs.
Assay [8] deals with Enterococcus faecalis. In words: microbe, parasite or virus in culture.
Assay [9] has as its system methicillin-resistant staphylococci. In words: microbe, parasite or virus in culture.
Assay [10] has as its system various strains of streptococci and enterococci resistant to vancomycin. The assay is described as follows: microbe, parasite or virus in culture. The note with it: read-out: MICs.

Consider `COC[C@H]1O[C@@H](O[C@@H]2OC[C@@H]3O[C@@]4(OC[C@@H](OC(=O)c5c(C)cc(O)cc5O)[C@@H]5OCO[C@H]54)O[C@H]3[C@H]2O)[C@@H](OC)[C@@H](O)[C@@H]1O[C@@H]1O[C@H](C)[C@H](OC)[C@H](O[C@@H]2O[C@H](C)[C@H]3O[C@]4(C[C@@H](O)[C@H](O[C@H]5C[C@@H](O[C@H]6C[C@](C)([N+](=O)[O-])[C@@H](OC)[C@H](C)O6)[C@H](OC(=O)c6c(C)c(Cl)c(O)c(Cl)c6OC)[C@@H](C)O5)[C@@H](C)O4)O[C@]3(C)[C@@H]2O)[C@H]1O` [Everninomicin, everninomicin], for which, in assay [1], the “cross resistance with other antibiotics” value is given as “No cross resistance with other antibiotics was observed”. Further, the MIC was at least 192 µg/mL in assay [2]; at least 2.5 µg/mL in assay [3]; at least 760 µg/mL in assay [4]; 0.5 µg/mL (≈ 0.306 µM) in [5] (read-out: GMM); at most 0.49 µg/mL in assay [6]; at least 200 µg/mL in assay [7]. The MIC in assay [8] (Enterococcus faecalis, read-out: GMM) was 0.49 µg/mL (≈ 0.3 µM); in assay [9] (read-out: GMM) it was 0.1 µg/mL (≈ 0.0613 µM); in [10], at most 0.5 µg/mL. Moreover, the “potency relative to vancomycin” value is 10 fold in [5]; 2 fold in assay [8]; 10 fold in assay [9] (more potent than vancomycin, methicillin-resistant staphylococci).

As for `CN[C@H](CC(C)C)C(=O)N[C@H]1C(=O)N[C@@H](CC(N)=O)C(=O)N[C@H]2C(=O)N[C@H]3C(=O)N[C@H](C(=O)N[C@H](C(=O)O)c4cc(O)cc(O)c4-c4cc3ccc4O)[C@H](O)c3ccc(c(Cl)c3)Oc3cc2cc(c3O[C@@H]2O[C@H](CO)[C@@H](O)[C@H](O)[C@H]2O[C@H]2C[C@](C)(N)[C@H](O)[C@H](C)O2)Oc2ccc(cc2Cl)[C@H]1O` [vancomycin], in assay [10], the MIC is at least 128 µg/mL.

Values taken from patent publication US5652226A (priority 1995, dated 1997).
